“Also recorded” adds a separate entry of the source. Where a name gives a salt, the structure may show the parent alone. One block for each compound: values may come before it.
Assays:
[1] = test system: 786-O cells; test: control SV40-luciferase activity in 786-O cells (toxicity); format: cell-based, human; conditions: for SV40-Luc (of control): 2.5 uM; for control SV40 luciferase activity (cell toxicity), result in words: quinidine at the doses tested
[2] = biological target: T1, HIF-2α (Homo sapiens, UniProt Q99814); test: HRE-luciferase activity in stable HRE/luciferase-expressing 786-O cells; format: cell-based; conditions: for HRE luciferase activity (HIF activity), result in words: stable HRE-luciferase 786-O cells
T1 construct: endogenous in cells; host or cells: 786-O cells stably expressing HRE-luciferase
T1 sequence (Q99814 whole entry): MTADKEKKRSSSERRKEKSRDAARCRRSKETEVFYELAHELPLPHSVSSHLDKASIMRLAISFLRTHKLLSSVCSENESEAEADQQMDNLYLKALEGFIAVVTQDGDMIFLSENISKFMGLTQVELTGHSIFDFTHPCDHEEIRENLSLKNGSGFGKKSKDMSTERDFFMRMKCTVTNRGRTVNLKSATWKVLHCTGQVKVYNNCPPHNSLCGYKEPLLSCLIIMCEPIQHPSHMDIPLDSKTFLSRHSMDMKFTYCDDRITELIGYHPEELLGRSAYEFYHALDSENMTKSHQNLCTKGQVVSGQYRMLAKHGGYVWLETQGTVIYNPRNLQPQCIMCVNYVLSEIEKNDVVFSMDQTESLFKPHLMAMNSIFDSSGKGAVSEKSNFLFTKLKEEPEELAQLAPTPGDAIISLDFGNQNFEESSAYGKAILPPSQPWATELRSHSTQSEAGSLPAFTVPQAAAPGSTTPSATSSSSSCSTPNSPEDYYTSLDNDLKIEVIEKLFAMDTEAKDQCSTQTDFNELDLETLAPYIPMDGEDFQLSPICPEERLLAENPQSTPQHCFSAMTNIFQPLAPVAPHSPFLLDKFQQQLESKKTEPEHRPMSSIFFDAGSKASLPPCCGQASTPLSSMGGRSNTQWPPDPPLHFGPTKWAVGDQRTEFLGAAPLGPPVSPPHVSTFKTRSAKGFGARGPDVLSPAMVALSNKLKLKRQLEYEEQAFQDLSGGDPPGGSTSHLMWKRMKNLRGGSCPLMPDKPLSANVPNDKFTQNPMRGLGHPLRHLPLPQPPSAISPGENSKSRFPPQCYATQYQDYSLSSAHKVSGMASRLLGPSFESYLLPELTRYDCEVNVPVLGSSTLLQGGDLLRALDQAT
Procedure: HRE, hypoxia-responsive element.
FIG. 5. […] PBS was used in CTL and compound C76 was used as a positive control. **, P<0.01, ****, P<0.0001. Student t test.
FIG. 7. Ethacridine is a potent HIF-α inhibitor. To validate the inhibitory effect of Ethacridine, stable 786-O cells expressing HRE-Luciferase was treated with Ethacridine at the indicated concentration for 24 h. Luciferase activity was then measured and normalized to control vehicle (DMSO) group. Ethacridine at 5 uM could inhibited approximately 80% HRE activity, i.e., HIF activity. Data are expressed as mean±SD. […]

[3] = test system: SDF1; test: quantitative RT-PCR of PH-causing genes in DMOG-treated HLMVECs: SDF1; conditions: 24 h, mean±SD
Procedure: (§1) Regarding Table 2, human lung microvascular endothelial cells (ECs) were treated with 2-Dimethyloxalylglycine (DMOG, PHD inhibitor) and either vehicle (DMSO) or various HIF inhibitors for 24 h. RNA was isolated for quantitative RT-PCR analysis.

[4] = test system: Endothelin-1; test: quantitative RT-PCR of PH-causing genes in DMOG-treated HLMVECs: Endothelin-1; format: cell-based, human; conditions: 24 h, mean±SD
Procedure: as §1

[5] = test system: PDGF-B; test: quantitative RT-PCR of PH-causing genes in DMOG-treated HLMVECs: PDGF-B; format: cell-based, human; conditions: 24 h, mean±SD
Procedure: as §1

[6] = test system: MCT-challenged rats; test: monocrotaline (MCT) rat model of pulmonary hypertension; format: in vivo
Procedure: (A) Representative micrographs of Russel-Movat pentachrome staining of MCT-rat lungs. […] (B) Quantification of PA wall thickness in MCT rat lungs. […] Lung sections were immunostained with anti-α-smooth muscle actin (α-SMA) antibody (red); nuclei were counterstained with DAPI (blue). […] Scale bars: 50 μm.
FIG. 6. […] At 14 days post-MCT challenge, the rats were treated with HEAQ (20 mg/kg, oral, daily) or PBS for another 14 days.
RVSP was measured (A) and RV hypertrophy was calculated (B) at 28 days post-treatment. […] One-way ANOVA.
At 14 days post-MCT challenge, the rats were treated with Propantheline (1.0 mg/kg, i.p., twice a day) and Ethacridine (7.5 mg/kg, i.p., twice a day) (P+E) at the same time for 14 days. A separate group of rats was treated with either Propantheline (2.5 mg/kg, i.p., twice a day). RVSP was measured (A) and RV hypertrophy was calculated (B) at 28 days post-treatment. […] One-way ANOVA.

[7] = biological target: human ether-à-go-go-related gene (hERG) channel (Homo sapiens, UniProt Q12809); conditions: from reference 21; read-out: hERG channel inhibition IC50; cited from earlier work
Sequence of human ether-à-go-go-related gene (hERG) channel (Q12809 whole entry): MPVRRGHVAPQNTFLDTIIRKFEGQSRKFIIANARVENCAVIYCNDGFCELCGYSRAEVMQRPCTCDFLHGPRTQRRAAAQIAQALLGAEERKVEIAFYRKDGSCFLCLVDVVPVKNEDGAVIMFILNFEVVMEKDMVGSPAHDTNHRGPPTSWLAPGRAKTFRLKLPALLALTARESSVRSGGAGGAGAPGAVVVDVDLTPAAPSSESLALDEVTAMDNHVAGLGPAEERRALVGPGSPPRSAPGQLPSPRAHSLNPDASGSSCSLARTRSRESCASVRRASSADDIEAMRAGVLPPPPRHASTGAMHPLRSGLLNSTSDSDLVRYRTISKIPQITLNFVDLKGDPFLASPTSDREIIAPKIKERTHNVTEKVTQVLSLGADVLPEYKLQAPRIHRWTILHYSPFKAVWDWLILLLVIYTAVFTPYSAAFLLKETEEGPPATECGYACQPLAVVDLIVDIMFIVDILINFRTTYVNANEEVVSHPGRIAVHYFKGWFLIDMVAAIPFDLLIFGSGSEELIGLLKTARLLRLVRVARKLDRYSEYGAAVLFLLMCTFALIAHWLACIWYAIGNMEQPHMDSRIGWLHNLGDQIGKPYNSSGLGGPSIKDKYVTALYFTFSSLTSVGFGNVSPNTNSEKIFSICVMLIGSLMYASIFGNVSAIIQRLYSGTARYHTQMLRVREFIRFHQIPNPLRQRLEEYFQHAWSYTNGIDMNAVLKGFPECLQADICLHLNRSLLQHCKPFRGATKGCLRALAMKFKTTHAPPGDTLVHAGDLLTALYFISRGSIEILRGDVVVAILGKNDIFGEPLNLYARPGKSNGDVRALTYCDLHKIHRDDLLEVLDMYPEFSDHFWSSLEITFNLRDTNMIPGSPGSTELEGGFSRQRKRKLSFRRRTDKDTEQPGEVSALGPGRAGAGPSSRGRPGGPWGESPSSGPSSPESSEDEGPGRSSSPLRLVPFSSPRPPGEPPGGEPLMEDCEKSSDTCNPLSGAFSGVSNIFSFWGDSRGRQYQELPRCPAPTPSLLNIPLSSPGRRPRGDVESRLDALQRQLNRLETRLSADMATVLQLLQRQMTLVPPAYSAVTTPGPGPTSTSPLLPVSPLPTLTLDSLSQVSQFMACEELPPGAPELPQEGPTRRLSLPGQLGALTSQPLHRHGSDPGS

[8] = test system: HIF-2α; test: Western blotting of HIF-2α protein level; format: cell-based
[9] = MCT rat lungs, quinidine s.c. osmotic pump 10-12 mg/kg/day, 14 days
[10] = MCT rats, quinidine s.c. osmotic pump 10-12 mg/kg/day, 14 days
[11] = MCT rats, quinidine s.c. osmotic pump 10-12 mg/kg/day, 14 days from 2 weeks post-MCT

inhibition at 2.5 µM ([2]; 786-0, 786-O cells, 2.5 uM): 65 to 77%
HRE-Luc (of control) ([2]; 786-O cells, 2.5 uM): 0.23
HRE luciferase activity (HIF activity), result in words ([2]; 24 h): potent HIF α inhibitors
Compound: CCc1c2c(nc3ccc(OC(=O)N4CCC(N5CCCCC5)CC4)cc13)-c1cc3c(c(=O)n1C2)COC(=O)[C@]3(O)CC [Irinotecan, [(19S)-10,19-diethyl-19-hydroxy-14,18-dioxo-17-oxa-3,13-diazapentacyclo[11.8.0.0^2,11.0^4,9.0^15,20]henicosa-1(21),2,4(9),5,7,10,15(20)-heptaen-7-yl] 4-piperidin-1-ylpiperidine-1-carboxylate; hydrochloride]
SV40-Luc (of control) ([1]; hydrochloride): 0.99
SV40-Luc (of control) ([1]; listed as irinotecan, hydrochloride): without clear toxicity

Compound: CCOc1ccc2nc3cc(N)ccc3c(N)c2c1 [Ethacridine, 7-ethoxyacridine-3,9-diamine]
inhibition at 2.5 µM ([2]; 786-0, 786-O cells, 2.5 uM): 70%
inhibition at 5 µM ([2]; 786-0, 786-O cells, 5 uM, 24 h, read-out: inhibition of HRE activity, i.e., HIF activity): ~80%
HRE luciferase activity (HIF activity), result in words ([2]; 24 h): potent HIF α inhibitors
SDF1 expression (control = 1.00) ([3]; 20 & 30 uM, DMOG alone 1.80 ± 0.06): 12.9 ± 8.1
SDF1 expression (control = 1.00) ([3]; 20 & 30 uM, DMOG alone 1.80 ± 0.06, listed as ethacridine): induced SDF-1 expression
Endothelin-1 expression (control = 1.00) ([4]; 20 & 30 uM, DMOG alone 2.36 ± 0.23): 0.12 ± 0.07
Endothelin-1 expression (control = 1.00) ([4]; 20 & 30 uM, DMOG alone 2.36 ± 0.23, listed as ethacridine): markedly inhibited
PDGF-B expression (control = 1.00) ([5]; 20 & 30 uM, DMOG alone 2.05 ± 0.33): 0.52 ± 0.31
PDGF-B expression (control = 1.00) ([5]; 20 & 30 uM, DMOG alone 2.05 ± 0.33, listed as ethacridine): markedly inhibited
PH (RVSP) ([6]; MCT rats, ethacridine alone 7.5 mg/kg i.p. twice a day, 14 days): didn't inhibit PH

inhibition at 2.5 µM ([2]; 786-0, 786-O cells, 2.5 uM): 65 to 77%
HRE-Luc (of control) ([2]; 786-O cells, 2.5 uM): 0.31
HRE luciferase activity (HIF activity), result in words ([2]; 24 h): potent HIF α inhibitors
Compound: CC[N+](C)(CC)CCOC(=O)C1c2ccccc2Oc2ccccc21 [Methantheline]
SV40-Luc (of control) [1]: 0.86
SV40-Luc (of control) ([1]; listed as methantheline): without clear toxicity

Compound: hydroxyethylapoquinine [HEAQ]
HRE luciferase activity (HIF activity), result in words ([2]; 24 h): could inhibit HIF activity as efficiently as Quinidine
IC50 [7]: > 90 µM
PH (RVSP) ([6]; MCT rats, HEAQ 20 mg/kg oral daily for 14 days from 14 days post-MCT): attenuate PH; also recorded: markedly reduced RVSP

HRE-Luc (of control) ([2]; 786-O cells, 1.25 uM): 0.34
HRE luciferase activity (HIF activity), result in words ([2]; 24 h): potent HIF α inhibitors
Compound: COc1cc([C@@H]2c3cc4c(cc3[C@@H](O[C@@H]3O[C@@H]5CO[C@@H](C)O[C@H]5[C@H](O)[C@H]3O)[C@H]3COC(=O)[C@H]23)OCO4)cc(OC)c1O [Etoposide, (5S,5aR,8aR,9R)-5-[[(2R,4aR,6R,7R,8R,8aS)-7,8-dihydroxy-2-methyl-4,4a,6,7,8,8a-hexahydropyrano[3,2-d][1,3]dioxin-6-yl]oxy]-9-(4-hydroxy-3,5-dimethoxyphenyl)-5a,6,8a,9-tetrahydro-5H-[2]benzofuro[6,5-f][1,3]benzodioxol-8-one]
SDF1 expression (control = 1.00) ([3]; 20 & 40 uM, DMOG alone 1.80 ± 0.06): 1.25 ± 0.80
Endothelin-1 expression (control = 1.00) ([4]; 20 & 40 uM, DMOG alone 2.36 ± 0.23): 0.47 ± 0.50
Endothelin-1 expression (control = 1.00) ([4]; 20 & 40 uM, DMOG alone 2.36 ± 0.23, listed as etoposide): markedly inhibited
PDGF-B expression (control = 1.00) ([5]; 20 & 40 uM, DMOG alone 2.05 ± 0.33): 0.77 ± 0.37
PDGF-B expression (control = 1.00) ([5]; 20 & 40 uM, DMOG alone 2.05 ± 0.33, listed as etoposide): markedly inhibited

Compound: C=C[C@H]1C[N@]2CC[C@H]1C[C@@H]2[C@@H](O)c1ccnc2ccc(OC)cc12 [Quinidine, (2-Ethenyl-4-azabicyclo[2.2.2]oct-5-yl)-(6-methoxyquinolin-4-yl)-methanol]
control SV40 luciferase activity (cell toxicity), result in words [1]: didn't repress control SV40 luciferase activity
control SV40 luciferase activity (cell toxicity), result in words ([1]; listed as quinidine): without obvious toxicity
HIF-2α protein level [8]: didn't inhibit expression
inhibition at 20 µM ([2]; 786-0, 786-O cells, 20 uM): ~70%
HRE luciferase activity (HIF activity), result in words ([2]; 24 h): repressed HRE luciferase (Luc) activity in a dose-dependent manner
HRE luciferase activity (HIF activity), result in words ([2]; 24 h, listed as quinidine): inhibition of HRE/luciferase activity in a dose-dependent manner
expression of HIF-2α downstream target genes in lungs ([6]; MCT rat lungs, quantitative RT-PCR, quinidine vs vehicle): normalized or markedly inhibited; also recorded: suppressed HIF-2α activation in MCT-rat lungs
muscularization of distal pulmonary arteries (<75 μm) [6, 9]: markedly attenuated; also recorded: Marked decrease in muscularization of distal pulmonary arterioles
pulmonary artery wall thickening (pulmonary vascular remodeling) [6, 9]: markedly attenuated; also recorded: reversed pulmonary vascular remodeling
survival, result in words ([6]; MCT rats, Log-rank test): promoted survival
PH (RVSP) ([6]; MCT rats, quinidine alone 10 mg/kg oral twice a day, 14 days): didn't inhibit PH
RV contractility [6, 10]: Improved RV contractility
RV wall thickness (echocardiography) [6, 10]: decreased RV wall thickness; also recorded: reduction in RV wall thickness
RV hypertrophy [6, 11]: marked decrease; also recorded: reduced
right ventricular systolic pressure (RVSP) [6, 11]: marked decrease; also recorded: reduced RVSP
survival rate ([6]; day 28 post-MCT challenge with a lethal dose, all vehicle rats had died): 90%

Compound: CC(C)[N+](C)(CCOC(=O)C1c2ccccc2Oc2ccccc21)C(C)C.[Br-] [Propantheline]
SDF1 expression (control = 1.00) ([3]; 40 uM, DMOG alone 1.80 ± 0.06): 0.53 ± 0.37
SDF1 expression (control = 1.00) ([3]; 40 uM, DMOG alone 1.80 ± 0.06, listed as propantheline): mainly inhibited SDF-1 expression
Endothelin-1 expression (control = 1.00) ([4]; 40 uM, DMOG alone 2.36 ± 0.23): 1.70 ± 0.45
PDGF-B expression (control = 1.00) ([5]; 40 uM, DMOG alone 2.05 ± 0.33): 1.55 ± 0.44
